Converted amounts (≈) assume the structure as drawn. Read-outs that look alike come from different tables or passages of the source.
How the values were obtained:
[1] = In vivo PK after single p.o. and i.v. dosing in CD-1 mice; design: species or system female CD-1 mice; details: for AUC(0-t): read-out: AUC0–24
Procedure: The Institutional Animal Care and Use Committee (IACUC) of the Novartis Institute for Tropical Diseases (NITD), registered with the Agri-Food and Veterinary authority (AVA), Government of Singapore, reviewed and approved all animal experimental protocols. […] The mice were allowed to acclimate before the initiation of the experiments. Feed and water were given ad libitum. […] The blood samples from the mice were collected at 0.02 (for i.v. only), 0.08, 0.25, 0.5, 1, 2, 4, 8, 16, and 24 h postdosing. The dose proportionality studies were conducted with KAE609. […] Additional samples were collected at 32 h and 48 h postdose for the 1- and 5-mg/kg dose groups and up to 72 h postdose for the 100-mg/kg dose group. Groups of three mice were used for each time point. Blood was centrifuged at 13,000 rpm for 7 min at 4°C, and plasma was harvested and stored at -20°C until analysis. […] After vortexing and centrifuging the mixture, the supernatant was removed and 5 μl of sample analyzed. Analyte quantitation was performed by high-performance liquid chromatography coupled with tandem mass spectrometry (LC-MS/MS). […] Instrument control and data acquisition were performed using the Applied Biosystems software Analyst 1.4.2. […] Multiple-reaction monitoring (MRM) was combined with optimized MS parameters to maximize detection specificity and sensitivity. The most intense MRM transitions [338.3/295.1 for (+)-1, 370.1/327.0 for (+)-2, 370.0/326.9 for (+)-3, 354.1/310.8 for (+)-4, 354.1/311.2 for (+)-5, 372.1/329.1 for (+)-6, 388.0/331.8 for (+)-7, 372.1/316.1 for (-)-6, and 388/332 for (-)-7] were used for quantitation. Most compounds were analyzed using electrospray ionization in the negative mode, except (+)-1, which was analyzed using positive mode. The recovery of the compounds from plasma was good and consistent across the concentration range studied. The lower limits of quantification for different compounds ranged from 1.3 to 70 ng/ml in plasma. A calibration curve was freshly prepared and analyzed with every set of study samples. Intraday variability was established with triplicate quality control samples at three concentration levels. The results were accepted if relative standard deviation was <15%. The mean values of the compound concentrations in plasma were obtained from three animals at each time point and plotted against time to generate concentration-time profiles. […] The oral bioavailability (F) was calculated as the ratio between the area under the concentration-time curve from 0 to infinity (AUC0-∞) following oral administration and the AUC0-∞ following intravenous administration corrected for dose (F = […].).

P. falciparum NF54 = assay: In vitro [3H]hypoxanthine incorporation assay, P. falciparum NF54; type: cell-based, Plasmodium falciparum; details: for IC50: 16 h + 8 h incubation, read-out: IC50 (mean ± SD) for P. falciparum NF54 (n = 3)
Procedure: Human erythrocytes served as the host cells. In vitro antimalarial activity was measured using the [^3H]hypoxanthine incorporation assay ([36]) with strain NF54 of P. falciparum (obtained from Hoffmann-LaRoche Ltd.). The compounds were dissolved in dimethyl sulfoxide (DMSO) at a concentration of 10 mM, diluted in hypoxanthine-free culture medium, and titrated in duplicate over a 64-fold range in 96-well plates. […] The parasites were harvested onto glass fiber filters, and radioactivity was measured using a BetaPlate liquid scintillation counter (Wallac, Zurich, Switzerland). All assays were repeated at least three times. The results were recorded and expressed as a percentage of the untreated controls. […] In addition, for the PK-PD analysis of KAE609, an IC99 value was determined by transforming the data from a scintillation counter (Anscombe transformation) to account for Poissonian measurement error. […] Each of the three replicates was performed on a distinct 96-well plate. This has been accounted for in the fitting procedure by means of a Bayesian hierarchical model. The software used for parameter inference was Stan ([37]).

[2] = RBC to plasma partitioning; type: in vitro ADME; details: mean from 1 µM & 10 µM
Source text: (§1) page 5: Running title: PreclinicalPK -PD of antimalarials 73 to high through put form at using in- house standard assa y protocols that are described in the 74 literature. […] 81 82 83 84 85 86 87 88 89 90 91 92 93 94 95 96 97 98 5

[3] = Intrinsic clearance in mouse liver microsomes; type: in vitro ADME; details: per mg protein
Source text: (§2) page 5: Running title: PreclinicalPK -PD of antimalarials 73 to high through put form at using in- house standard assa y protocols that are described in the 74 literature. 75 (a)HT-Equilibrium solubilit y at pH 6.8( 1); (b)Parallel Artificial Membrane P ermeability Assa y 76 expressed in % fraction absorbed (FA) ( 2,3 ); (c)Apparent permeability from apical to […] 78 tested; (d)intrinsic clearance in mouse liver micro somes ex pressed as µ L/ min/mg protein, in 79 the presen ce of liver enzym es ( 6); (e)Mous e plasm a protein binding using rapid equilibrium […] 81 82 83 84 85 86 87 88 89 90 91 92 93 94 95 96 97 98 5

Caco-2 cells = assay: Caco-2 permeability; type: in vitro ADME; details: apical to basolateral
Source text: as §2

[4] = HT-equilibrium solubility; type: physicochemical; details: pH 6.8, HT-equilibrium solubility
Source text: as §1

[5] = oral 25 mg/kg vs i.v. 5 mg/kg, CD-1 mice
[6] = single oral dose 25 mg/kg, CD-1 mice
[7] = single oral dose 25 mg/kg, CD-1 mice, plasma
[8] = oral 1.5–105 mg/kg, CD-1 mouse, power regression model

C[C@@H]1Cc2c([nH]c3cc(F)c(F)cc23)[C@]2(N1)C(=O)Nc1ccc(Cl)cc12 [(−)-6]
CL ([1]; i.v. 5 mg/kg, CD-1 mice): 4.2 mL/min/kg | Vss ([1]; i.v. 5 mg/kg, CD-1 mice): 2.8 L/kg | t1/2 (i.v.) ([1]; i.v. 5 mg/kg, CD-1 mice): 13.2 h | F (oral bioavailability) [1, 5]: 78% | AUC0–24 [1, 6]: 68200 ng·h/mL | Tmax [1, 6]: 2 h | t1/2 (oral) [1, 6]: 7.9 h | Cmax [1, 7]: 5000 ng/mL | In vitro activity against P. falciparum (P. falciparum NF54): submicromolar | IC50 (P. falciparum NF54): 105 ± 20 nM | RBC to Plasma Ratio [2]: 0.81 | Hepatic CLint in mouse liver microsomes [3]: 36 µL/min/mg | Caco-2 Papp (A-B) (Caco-2 cells): 4.8 10-6 cm/sec | Solubility [4]: 112 µM (≈ 41.9 µg/mL)

C[C@H]1Cc2c([nH]c3cc(Cl)c(F)cc23)[C@@]2(N1)C(=O)Nc1ccc(Cl)cc12 [(+)-7 (KAE609)]
Vd ([1]; female, mouse, plasma, iv, i.v. 5 mg/kg, CD-1 mice, read-out: Vss): 2.1 L/kg | half-life ([1]; female, mouse, plasma, iv, i.v. 5 mg/kg, CD-1 mice, read-out: t1/2 (i.v.) (converted)): 3.4 h | AUC(0-t) ([1]; female, mouse, plasma, oral 1.5 mg/kg, CD-1 mice, HCl/Solutol HS15/citrate pH 3 formulation): 1000 ng·h/mL | Cmax ([1]; female, mouse, plasma, oral 1.5 mg/kg, CD-1 mice, HCl/Solutol HS15/citrate pH 3 formulation, read-out: Cmax): 100 ng/mL | bioavailability ([1]; female, mouse, plasma, oral 1.5 mg/kg, CD-1 mice, HCl/Solutol HS15/citrate pH 3 formulation, read-out: F): 44% | Tmax ([1]; female, mouse, plasma, oral 1.5 mg/kg, CD-1 mice, HCl/Solutol HS15/citrate pH 3 formulation, read-out: Tmax): 1 h | half-life ([1]; female, mouse, plasma, oral 1.5 mg/kg, CD-1 mice, HCl/Solutol HS15/citrate pH 3 formulation, read-out: t1/2 (oral) (converted)): 8.7 h | AUC(0-t) ([1]; female, mouse, plasma, oral 5.6 mg/kg, CD-1 mice, HCl/Solutol HS15/citrate pH 3 formulation): 2600 ng·h/mL | Cmax ([1]; female, mouse, plasma, oral 5.6 mg/kg, CD-1 mice, HCl/Solutol HS15/citrate pH 3 formulation, read-out: Cmax): 250 ng/mL | bioavailability ([1]; female, mouse, plasma, oral 5.6 mg/kg, CD-1 mice, HCl/Solutol HS15/citrate pH 3 formulation, read-out: F): 32% | Tmax ([1]; female, mouse, plasma, oral 5.6 mg/kg, CD-1 mice, HCl/Solutol HS15/citrate pH 3 formulation, read-out: Tmax): 2 h | half-life ([1]; female, mouse, plasma, oral 5.6 mg/kg, CD-1 mice, HCl/Solutol HS15/citrate pH 3 formulation, read-out: t1/2 (oral) (converted)): 7.5 h | bioavailability ([1]; female, mouse, plasma, oral 25 mg/kg vs i.v. 5 mg/kg, CD-1 mice, read-out: F (oral bioavailability)): 100% | AUC(0-t) ([1]; female, mouse, plasma, oral 105 mg/kg, CD-1 mice, HCl/Solutol HS15/citrate pH 3 formulation): 187000 ng·h/mL | Cmax ([1]; female, mouse, plasma, oral 105 mg/kg, CD-1 mice, HCl/Solutol HS15/citrate pH 3 formulation, read-out: Cmax): 10800 ng/mL | bioavailability ([1]; female, mouse, plasma, oral 105 mg/kg, CD-1 mice, HCl/Solutol HS15/citrate pH 3 formulation, read-out: F): 100% | Tmax ([1]; female, mouse, plasma, oral 105 mg/kg, CD-1 mice, HCl/Solutol HS15/citrate pH 3 formulation, read-out: Tmax): 24 h | half-life ([1]; female, mouse, plasma, oral 105 mg/kg, CD-1 mice, HCl/Solutol HS15/citrate pH 3 formulation, read-out: t1/2 (oral) (converted)): 9.4 h | AUC(0-t) ([1]; female, mouse, plasma, single oral dose 25 mg/kg, CD-1 mice): 43300 ng·h/mL | Tmax ([1]; female, mouse, plasma, single oral dose 25 mg/kg, CD-1 mice, read-out: Tmax): 1 h | half-life ([1]; female, mouse, plasma, single oral dose 25 mg/kg, CD-1 mice, read-out: t1/2 (oral) (converted)): 10 h | Cmax ([1]; female, mouse, single oral dose 25 mg/kg, CD-1 mice, plasma, read-out: Cmax): 3600 ng/mL | CL ([1]; i.v. 5 mg/kg, CD-1 mice): 9.7 mL/min/kg | Dose linearity ([1]; oral 1.5–105 mg/kg, CD-1 mouse): nonlinear behavior | Slope, log dose vs log AUC0-24 (dose proportionality) [1, 8]: 1.30 | Slope, log dose vs log Cmax (dose proportionality) [1, 8]: 1.18 | Threshold (TRE), 2 × P. falciparum IC99 (P. falciparum NF54): 1 ng/mL | IC50 (P. falciparum NF54; Plasmodium falciparum, NF54): 1.2 ± 0.2 nM | microsomal CLint ([3]; mouse, liver microsomes, read-out: Hepatic CLint in mouse liver microsomes): 28 µL/min/mg | Solubility ([4]; aqueous buffer, thermodynamic from solid): 39 µM (≈ 15.2 µg/mL)

C[C@H]1Cc2c([nH]c3cc(F)ccc23)[C@@]2(N1)C(=O)Nc1ccc(Cl)cc12 [(+)-5]
CL ([1]; i.v. 5 mg/kg, CD-1 mice): 11.8 mL/min/kg | Vss ([1]; i.v. 5 mg/kg, CD-1 mice): 1.6 L/kg | t1/2 (i.v.) ([1]; i.v. 5 mg/kg, CD-1 mice): 3.8 h | F (oral bioavailability) [1, 5]: 47% | AUC0–24 [1, 6]: 17700 ng·h/mL | Tmax [1, 6]: 0.25 h | t1/2 (oral) [1, 6]: 4.0 h | Cmax [1, 7]: 3100 ng/mL | IC50 (P. falciparum NF54): 4.3 ± 0.4 nM | RBC to Plasma Ratio [2]: 1.18 | Hepatic CLint in mouse liver microsomes [3]: 26 µL/min/mg | Caco-2 Papp (A-B) (Caco-2 cells): 4.33 10-6 cm/sec | Solubility [4]: 131 µM (≈ 46.6 µg/mL)

C[C@H]1Cc2c([nH]c3cc(Cl)ccc23)[C@@]2(N1)C(=O)Nc1ccc(Cl)cc12 [(+)-3]
CL ([1]; i.v. 5 mg/kg, CD-1 mice): 60.1 mL/min/kg | Vss ([1]; i.v. 5 mg/kg, CD-1 mice): 13.7 L/kg | t1/2 (i.v.) ([1]; i.v. 5 mg/kg, CD-1 mice): 4.3 h | F (oral bioavailability) [1, 5]: 91% | AUC0–24 [1, 6]: 5800 ng·h/mL | Tmax [1, 6]: 2 h | t1/2 (oral) [1, 6]: 6.2 h | Cmax [1, 7]: 700 ng/mL | IC50 (P. falciparum NF54): 5.6 ± 0.7 nM | RBC to Plasma Ratio [2]: 0.93 | Hepatic CLint in mouse liver microsomes [3]: 35 µL/min/mg | Caco-2 Papp (A-B) (Caco-2 cells): 41.7 10-6 cm/sec | Solubility [4]: 8 µM (≈ 2.98 µg/mL)

C[C@H]1Cc2c([nH]c3ccc(Cl)cc23)[C@@]2(N1)C(=O)Nc1ccc(Cl)cc12 [(+)-2]
CL ([1]; i.v. 5 mg/kg, CD-1 mice): 92.6 mL/min/kg | Vss ([1]; i.v. 5 mg/kg, CD-1 mice): 9.9 L/kg | t1/2 (i.v.) ([1]; i.v. 5 mg/kg, CD-1 mice): 4.6 h | F (oral bioavailability) [1, 5]: 62% | AUC0–24 [1, 6]: 2900 ng·h/mL | Tmax [1, 6]: 1 h | t1/2 (oral) [1, 6]: 4.3 h | Cmax [1, 7]: 600 ng/mL | IC50 (P. falciparum NF54): 5.6 ± 0.9 nM | RBC to Plasma Ratio [2]: 0.77 | Hepatic CLint in mouse liver microsomes [3]: 92 µL/min/mg | Solubility [4]: 22 µM (≈ 8.19 µg/mL)
